Data published in paper PMC11277489, “Novel Piperazine Derivatives of Vindoline as Anticancer Agents” (International Journal of Molecular Sciences, 2024).

Assays:
HL-60(TB) = assay: NCI60 five-dose screen, Leukemia; type: cell-based; settings: Homo sapiens; HL-60(TB), Leukemia; five-dose screen; read-out: GI50
MOLT-4 = assay: NCI60 five-dose screen, Leukemia; type: cell-based; settings: Homo sapiens; MOLT-4, Leukemia; five-dose screen; read-out: GI50
RPMI-8226 = assay: NCI60 five-dose screen, Leukemia; type: cell-based; settings: Homo sapiens; RPMI-8226, Leukemia; five-dose screen; read-out: GI50
A549/ATCC = assay: NCI60 five-dose screen, Non-small Cell Lung Cancer; type: cell-based; settings: Homo sapiens; A549/ATCC, Non-small Cell Lung Cancer; five-dose screen; read-out: GI50
EKVX = assay: NCI60 five-dose screen, Non-small Cell Lung Cancer; type: cell-based; settings: Homo sapiens, Non-small Cell Lung Cancer, five-dose screen, read-out: GI50
HOP-62 = assay: NCI60 five-dose screen, Non-small Cell Lung Cancer; type: cell-based; settings: Homo sapiens; HOP-62, Non-small Cell Lung Cancer; five-dose screen; read-out: GI50
NCI-H23 = assay: NCI60 five-dose screen, Non-small Cell Lung Cancer; type: cell-based; settings: Homo sapiens; NCI-H23, Non-small Cell Lung Cancer; five-dose screen; read-out: GI50
NCI-H522 = assay: NCI60 five-dose screen, Non-small Cell Lung Cancer; type: cell-based; settings: Homo sapiens; NCI-H522, Non-small Cell Lung Cancer; five-dose screen; read-out: GI50
HCC-2998 = assay: NCI60 five-dose screen, Colon Cancer; type: cell-based; settings: Homo sapiens; HCC-2998, Colon Cancer; five-dose screen; read-out: GI50
HCT-15 = assay: NCI60 five-dose screen, Colon Cancer; type: cell-based; settings: Homo sapiens; HCT-15, Colon Cancer; five-dose screen; read-out: GI50
HT29 = assay: NCI60 five-dose screen, Colon Cancer; type: cell-based; settings: Homo sapiens, HT-29; HT29, Colon Cancer; five-dose screen; read-out: GI50
SF-268 = assay: NCI60 five-dose screen, CNS Cancer; type: cell-based; settings: Homo sapiens; SF-268, CNS Cancer; five-dose screen; read-out: GI50
SF-295 = assay: NCI60 five-dose screen, CNS Cancer; type: cell-based; settings: Homo sapiens; SF-295, CNS Cancer; five-dose screen; read-out: GI50
SF-539 = assay: NCI60 five-dose screen, CNS Cancer; type: cell-based; settings: Homo sapiens; SF-539, CNS Cancer; five-dose screen; read-out: GI50
U251 = assay: NCI60 five-dose screen, CNS Cancer; type: cell-based; settings: Homo sapiens, U-251; U251, CNS Cancer; five-dose screen; read-out: GI50
LOX IMVI = assay: NCI60 five-dose screen, Melanoma; type: cell-based; settings: Homo sapiens, Melanoma, five-dose screen, read-out: GI50
M14 = assay: NCI60 five-dose screen, Melanoma; type: cell-based; settings: Homo sapiens; M14, Melanoma; five-dose screen; read-out: GI50
SK-MEL-5 = assay: NCI60 five-dose screen, Melanoma; type: cell-based; settings: Homo sapiens; SK-MEL-5, Melanoma; five-dose screen; read-out: GI50
UACC-257 = assay: NCI60 five-dose screen, Melanoma; type: cell-based; settings: Homo sapiens; UACC-257, Melanoma; five-dose screen; read-out: GI50
OVCAR-5 [1] = assay: NCI60 five-dose screen, Ovarian Cancer; type: cell-based; settings: Homo sapiens; OVCAR-5, Ovarian Cancer; five-dose screen; read-out: GI50
OVCAR-8 = assay: NCI60 five-dose screen, Ovarian Cancer; type: cell-based; settings: Homo sapiens; OVCAR-8, Ovarian Cancer; five-dose screen; read-out: GI50
SK-OV-3 [2] = assay: NCI60 five-dose screen, Ovarian Cancer; type: cell-based; settings: Homo sapiens; SK-OV-3, Ovarian Cancer; five-dose screen; read-out: GI50
786–0 = assay: NCI60 five-dose screen, Renal Cancer; type: cell-based; settings: Homo sapiens; 786–0, Renal Cancer; five-dose screen; read-out: GI50
A498 = assay: NCI60 five-dose screen, Renal Cancer; type: cell-based; settings: Homo sapiens; A498, Renal Cancer; five-dose screen; read-out: GI50
RXF 393 = assay: NCI60 five-dose screen, Renal Cancer; type: cell-based; settings: Homo sapiens, RXF 393, Renal Cancer
MCF7 = assay: NCI60 five-dose screen, Breast Cancer; type: cell-based; settings: Homo sapiens; MCF7, Breast Cancer; five-dose screen; read-out: GI50
MDA-MB-468 [3] = assay: NCI60 five-dose screen, Breast Cancer; type: cell-based; settings: Homo sapiens; MDA-MB-468, Breast Cancer; five-dose screen; read-out: GI50
CCRF-CEM = assay: NCI60 one-dose screen (10 μM), Leukemia; type: cell-based; settings: Homo sapiens, 10 μM, Leukemia, read-out: Growth percent rate
SR = assay: NCI60 one-dose screen (10 μM), Leukemia; type: cell-based; settings: Homo sapiens, 10 μM, Leukemia, read-out: Growth percent rate
NCI-H226 = assay: NCI60 one-dose screen (10 μM), Non-small Cell Lung Cancer; type: cell-based; settings: Homo sapiens; 10 μM; NCI-H226, Non-small Cell Lung Cancer; read-out: Growth percent rate
KM12 = assay: NCI60 one-dose screen (10 μM), Colon Cancer; type: cell-based, human; settings: for activity at 10 µM: Homo sapiens, KM12, Colon Cancer, read-out: Growth percent rate
SNB-75 = assay: NCI60 one-dose screen (10 μM), CNS Cancer; type: cell-based, human; settings: for activity at 10 µM: Homo sapiens, SNB-75, CNS Cancer, read-out: Growth percent rate
SK-MEL-2 = assay: NCI60 one-dose screen (10 μM), Melanoma; type: cell-based; settings: Homo sapiens; 10 μM; SK-MEL-2, Melanoma; read-out: Growth percent rate
UACC-62 = assay: NCI60 one-dose screen (10 μM), Melanoma; type: cell-based; settings: Homo sapiens; 10 μM; UACC-62, Melanoma; read-out: Growth percent rate
OVCAR-3 = assay: NCI60 one-dose screen (10 μM), Ovarian Cancer; type: cell-based; settings: Homo sapiens; 10 μM; OVCAR-3, Ovarian Cancer; read-out: Growth percent rate
OVCAR-5 [4] = assay: NCI60 one-dose screen (10 μM), Ovarian Cancer; type: cell-based; settings: Homo sapiens; 10 μM; OVCAR-5, Ovarian Cancer; read-out: Growth percent rate
NCI/ADR-RES = assay: NCI60 one-dose screen (10 μM), Ovarian Cancer; type: cell-based; settings: Homo sapiens, 10 μM, Ovarian Cancer, read-out: Growth percent rate
SK-OV-3 [5] = assay: NCI60 one-dose screen (10 μM), Ovarian Cancer; type: cell-based; settings: Homo sapiens; 10 μM; SK-OV-3, Ovarian Cancer; read-out: Growth percent rate
UO-31 = assay: NCI60 one-dose screen (10 μM), Renal Cancer; type: cell-based; settings: Homo sapiens; 10 μM; UO-31, Renal Cancer; read-out: Growth percent rate
DU-145 = assay: NCI60 one-dose screen (10 μM), Prostate Cancer; type: cell-based; settings: Homo sapiens; 10 μM; DU-145, Prostate Cancer; read-out: Growth percent rate
MDA-MB-231/ATCC = assay: NCI60 one-dose screen (10 μM), Breast Cancer; type: cell-based, human; settings: for activity at 10 µM: Homo sapiens, MDA-MB-231/ATCC, Breast Cancer, read-out: Growth percent rate
BT-549 = assay: NCI60 one-dose screen (10 μM), Breast Cancer; type: cell-based; settings: Homo sapiens; 10 μM; BT-549, Breast Cancer; read-out: Growth percent rate
T-47D = assay: NCI60 one-dose screen (10 μM), Breast Cancer; type: cell-based; settings: Homo sapiens, T47D; 10 μM; T-47D, Breast Cancer; read-out: Growth percent rate
MDA-MB-468 [6] = assay: NCI60 one-dose screen (10 μM), Breast Cancer; type: cell-based; settings: Homo sapiens; 10 μM; MDA-MB-468, Breast Cancer; read-out: Growth percent rate
PC-3 = assay: NCI60 one-dose screen (10 μM), Prostate Cancer; type: cell-based; settings: Homo sapiens; 10 μM; PC-3, Prostate Cancer; read-out: Growth percent rate

Compound: CCC12C=CCN3CCC4(c5cc(NC(=O)CN6CCN(c7ccc(C(F)(F)F)cc7)CC6)c(OC)cc5N(C)C4C(O)(C(=O)OC)C1OC(C)=O)C32 (stereo not shown) [Compound 17]
- GI50 (HL-60(TB)): 2.14 µM
- GI50 (MOLT-4): 2.09 µM
- GI50 (RPMI-8226): 3.09 µM
- GI50 (A549/ATCC): 4.07 µM
- GI50 (EKVX): 6.03 µM
- GI50 (HOP-62): 3.72 µM
- GI50 (NCI-H23): 10.7 µM
- GI50 (NCI-H522): 10.5 µM
- GI50 (HCC-2998): 7.76 µM
- GI50 (HCT-15): 3.89 µM
- GI50 (HT29): 2.09 µM
- GI50 (SF-268): 3.02 µM
- GI50 (SF-295): 3.55 µM
- GI50 (SF-539): 4.68 µM
- GI50 (U251): 6.03 µM
- GI50 (LOX IMVI): 4.27 µM
- GI50 (M14): 3.63 µM
- GI50 (SK-MEL-5): 2.4 µM
- GI50 (UACC-257): 5.5 µM
- GI50 (OVCAR-5 [1]): 10.7 µM
- GI50 (OVCAR-8): 8.51 µM
- GI50 (SK-OV-3 [2]): 3.31 µM
- GI50 (786–0): 6.31 µM
- GI50 (A498): 10.7 µM
- GI50 (RXF 393): 5.37 µM
- GI50 (MCF7): 3.72 µM
- GI50 (MDA-MB-468 [3]): 2.4 µM
- activity at 10 µM (CCRF-CEM): -7.07%
- activity at 10 µM (SR): -11.4%
- activity at 10 µM (NCI-H226): -61.9%
- growth percent rate (KM12; 10 μM one-dose, KM12 colon cancer, negative = lethality): −84.40%
- activity at 10 µM (KM12): -84.4%
- growth percent rate (SNB-75; 10 μM one-dose, SNB-75 CNS cancer, negative = lethality): < −80%
- activity at 10 µM (SNB-75): -87.6%
- activity at 10 µM (SK-MEL-2): -66.2%
- activity at 10 µM (UACC-62): -54.8%
- activity at 10 µM (OVCAR-3): -48%
- activity at 10 µM (OVCAR-5 [4]): -41.6%
- activity at 10 µM (NCI/ADR-RES): 0.4%
- activity at 10 µM (SK-OV-3 [5]): 6.93%
- activity at 10 µM (UO-31): 0.08%
- activity at 10 µM (DU-145): 24.1%
- growth percent rate (MDA-MB-231/ATCC; 10 μM one-dose, MDA-MB-231/ATCC breast cancer, negative = lethality): −86.10%
- activity at 10 µM (MDA-MB-231/ATCC): -86.2%
- activity at 10 µM (BT-549): -50.4%
- activity at 10 µM (T-47D): 9.79%
- activity at 10 µM (MDA-MB-468 [6]): -62.5%

Compound: CC[C@]12C=CCN3CC[C@@]4(c5ccc(OC)cc5N(C)[C@H]4[C@@](O)(C(=O)OC)[C@@H]1OC(=O)CCCN1CCN(Cc4ccc(F)cc4)CC1)[C@@H]32 [Compound 24]
- GI50 (HL-60(TB)): 3.31 µM
- GI50 (MOLT-4): 1.74 µM
- GI50 (RPMI-8226): 4.17 µM
- GI50 (A549/ATCC): 10.2 µM
- GI50 (EKVX): 12 µM
- GI50 (HOP-62): 10.2 µM
- GI50 (NCI-H23): 13.2 µM
- GI50 (NCI-H522): 13.8 µM
- GI50 (HCC-2998): 2.19 µM
- GI50 (HCT-15): 5.13 µM
- GI50 (HT29): 3.8 µM
- GI50 (SF-268): 5.25 µM
- GI50 (SF-295): 12.6 µM
- GI50 (SF-539): 10.5 µM
- GI50 (U251): 7.59 µM
- GI50 (LOX IMVI): 5.01 µM
- GI50 (M14): 5.5 µM
- GI50 (SK-MEL-5): 1.66 µM
- GI50 (UACC-257): 2 µM
- GI50 (OVCAR-5 [1]): 13.8 µM
- GI50 (OVCAR-8): 14.5 µM
- GI50 (SK-OV-3 [2]): 12 µM
- GI50 (786–0): 6.31 µM
- GI50 (A498): 12.9 µM
- GI50 (RXF 393): 1 µM
- GI50 (MCF7): 3.98 µM
- GI50 (MDA-MB-468 [3]): 1.74 µM
- activity at 10 µM (CCRF-CEM): 12.7%
- activity at 10 µM (SR): 4.82%
- activity at 10 µM (NCI-H226): 50.2%
- activity at 10 µM (KM12): 45.7%
- activity at 10 µM (SNB-75): -0.13%
- activity at 10 µM (SK-MEL-2): -26.1%
- activity at 10 µM (UACC-62): 34.7%
- activity at 10 µM (OVCAR-3): 50.6%
- activity at 10 µM (OVCAR-5 [4]): 81.2%
- activity at 10 µM (NCI/ADR-RES): 42%
- activity at 10 µM (SK-OV-3 [5]): 70%
- activity at 10 µM (UO-31): 20.7%
- activity at 10 µM (PC-3): 12.9%
- activity at 10 µM (DU-145): 39.5%
- activity at 10 µM (MDA-MB-231/ATCC): 51.5%
- activity at 10 µM (BT-549): 16.3%
- activity at 10 µM (T-47D): 28.8%
